Laboratory results reported in ChEMBL document CHEMBL1134186, “Protein phosphatase 1 catalyses the direct hydrolytic cleavage of phosphate monoester in a ternary complex mechanism” (Bioorg Med Chem Lett, 2001).
Where a SMILES comes first, the peptide text is derived from it.

Key:
protein phosphatase = assay: Compound was evaluated for the Michaelis-Menten constant, Km in a generic protein phosphatase stopped assay system; type: ADME
[1] = Compound was evaluated for the Ki value for peptide alcohol for competitive inhibition in the presence of Mn2+ ions at pH 7.5; type: ADME

Row | Km (protein phosphatase) | Ki [1] | Compound
1 | 3.7 mM | 1600 µM | CC(=O)N[C@@H](CCCN=C(N)N)C(=O)N[C@@H](CCCN=C(N)N)C(=O)N[C@@H](C)C(=O)N[C@H](C(=O)N[C@H](C(=O)N[C@@H](C)C(=O)O)C(C)C)[C@@H](C)OP(=O)(O)O (HELM PEPTIDE1{[ac].R.R.A.[C[C@@H](OP(=O)(O)O)[C@H](N[*:1])C(=O)[*:2]].V.A}$$$$V2.0)
2 |  | > 30000 µM | H-RRATVA-OH
